Where two headings read alike, the source gives them in different places.
Assays:
Format in all cases: cell-based, Enterobacteriaceae
VIM strains = experiment: Temocillin MIC, agar dilution (Example 1); conditions: Ex 1; temocillin alone; MIC in mg/l
Experimental: (§1) Determination of the MICs with Respect to Temocillin for a Panel of CPE Strains (Using the Agar Dilution Method)
(§2) Reaction medium: the base is a chromLD™ CPS medium (bioMérieux, ref. 43821-43829), comprising a chromogenic substrate for beta-glucuronidase, a chromogenic substrate for beta-glucosidase, a chromogenic substrate for beta-galactosidase and a substrate for deaminase. Temocillin is added to this base medium at the concentrations indicated hereinafter.
(§3) Temocillin range tested: 50-150-200-300 mg/l (disodium temocillin, Eumedica SA, Manage, Belgium).
(§4) The media are inoculated by depositing a spot: 1 μl of a microbial suspension in physiological saline at 0.5 McF, diluted to 1/10.
(§5) Incubation for 24 h at 37° C.
(§6) Reading after incubation for 24 hours. The medium with the smallest temocillin concentration on which a negative growth spot is obtained will be retained as the MIC. The spots having only 3 colonies or less or a total absence of growth were considered to be negative.

NDM-1 strains = experiment: Temocillin MIC, agar dilution (Example 1); conditions: Ex 1; temocillin alone; MIC in mg/l
Experimental: as §1, §2, §3, §4, §5, §6

AmpC strains = experiment: Temocillin MIC, agar dilution (Example 1); conditions: Ex 1; temocillin alone; MIC in mg/l
Experimental: as §1, §2, §3, §4, §5, §6

[1] = system: strains with impermeability-mediated resistance to carbapenems (IR); experiment: Temocillin MIC, agar dilution (Example 1); conditions: Ex 1; temocillin alone; MIC in mg/l
Experimental: as §1, §2, §3, §4, §5, §6

Non-OXA-48 strains [2] = experiment: Temocillin MIC, agar dilution (Example 1)
Experimental: as §1, §2, §3, §4, §5, §6

BLSE strains = experiment: Temocillin MIC, agar dilution (Example 1); conditions: Ex 1; temocillin alone; MIC in mg/l
Experimental: as §1, §2, §3, §4, §5, §6

KPC strains = experiment: Temocillin MIC, agar dilution (Example 1); conditions: Ex 1; temocillin alone; MIC in mg/l
Experimental: as §1, §2, §3, §4, §5, §6

IMP strains = experiment: Temocillin MIC, agar dilution (Example 1); conditions: Ex 1; temocillin alone; MIC in mg/l
Experimental: as §1, §2, §3, §4, §5, §6

OXA-48 strains [3] = experiment: Temocillin MIC, agar dilution (Example 1)
Experimental: as §1, §2, §3, §4, §5, §6

[4] = system: strains with impermeability-mediated resistance (IR); conditions: Ex 2, MIC in mg/l
Text: Optimization of the Detection Specificity by Introducing Specific Inhibitors Inhibition of Class B Strains (NDM, VIM, IMP) by Adding EDTA
Identical to that used to determine the temocillin MICs by agar dilution (example 1).
For each temocillin concentration, the following concentrations of active EDTA will be tested in the form of disodium EDTA: 0, 1.77, 2.12, 2.47 and 2.83 mmol/l.
Method: identical to the method used in example 1.

Non-OXA-48 strains [5] = experiment: Prototype medium, strains detected (Example 3); conditions: Non-OXA-48 deposit of 10^6 CFU; temocillin 300 mg/l; 24 hours
Experimental: (§7) The media are prepared in 55 mm diameter Petri dishes. They are inoculated using a bacterial suspension in physiological saline at 0.5 McF for the non-OXA-48 strains and with a 1/100 and 1/10 000 dilution of a suspension at 0.5 McF for the OXA-48 strains. The inoculation consists of 3-quadrant streaking using a 10 μl calibrated loop: theoretical deposit of 10^4 or 10^2 CFU for the OXA-48 strains and of 10^6 CFU for the strains not producing OXA-48.
(§8) The media are incubated at 37° C. The readings will be carried out after 18 and 24 hours of incubation.
(§9) The growth density, the colony sizes and also the coloration (color and strength) are evaluated.
(§10) Reaction medium identical to the base used for example 1. A selective system comprising a mixture of antibiotics and antifungals which is specific for Gram-positives, yeasts and Gram-negatives which are non-fermenting, and also cloxacillin and EDTA, is also added.
(§11) A medium at 200 mg/l of temocillin is tested without selective system as indicated above.

OXA-48 strains [6] = experiment: Prototype medium, strains detected (Example 3); conditions: 24 hours of incubation
Experimental: as §7, §8, §9, §10, §11

[7] = Ex 1, temocillin alone, MIC in mg/l

CO[C@@]1(NC(=O)C(C(=O)O)c2ccsc2)C(=O)N2[C@@H](C(=O)O)C(C)(C)S[C@@H]21 (stereo partly drawn) [temocillin]
No. of VIM strains with MIC 150 (VIM strains): 5 | No. of VIM strains with MIC 200 (VIM strains): 1 | No. of VIM strains with MIC 300 (VIM strains): 0 | No. of VIM strains with MIC >300 (VIM strains): 1 | No. of VIM strains with MIC ≦50 (VIM strains): 9 | No. of NDM-1 strains with MIC 150 (NDM-1 strains): 1 | No. of NDM-1 strains with MIC 200 (NDM-1 strains): 0 | No. of NDM-1 strains with MIC 300 (NDM-1 strains): 0 | No. of NDM-1 strains with MIC >300 (NDM-1 strains): 0 | No. of NDM-1 strains with MIC ≦50 (NDM-1 strains): 25 | No. of AmpC strains with MIC 150 (AmpC strains): 0 | No. of AmpC strains with MIC 200 (AmpC strains): 0 | No. of AmpC strains with MIC 300 (AmpC strains): 0 | No. of AmpC strains with MIC >300 (AmpC strains): 0 | No. of AmpC strains with MIC ≦50 (AmpC strains): 10 | No. of IR strains with MIC 150 [1]: 2 | No. of IR strains with MIC 200 [1]: 0 | No. of IR strains with MIC 300 [1]: 0 | No. of IR strains with MIC >300 [1]: 0 | No. of IR strains with MIC ≦50 [1]: 8 | MIC (Non-OXA-48 strains [2]; most of the non-OXA-48 strains): ≤ 200 µg/mL | MIC (Non-OXA-48 strains [2]; only a few non-OXA-48 strains): > 300 µg/mL | No. of BLSE strains with MIC 150 (BLSE strains): 0 | No. of BLSE strains with MIC 200 (BLSE strains): 0 | No. of BLSE strains with MIC 300 (BLSE strains): 0 | No. of BLSE strains with MIC >300 (BLSE strains): 2 | No. of BLSE strains with MIC ≦50 (BLSE strains): 8 | No. of KPC strains with MIC 150 (KPC strains): 1 | No. of KPC strains with MIC 200 (KPC strains): 0 | No. of KPC strains with MIC 300 (KPC strains): 0 | No. of KPC strains with MIC >300 (KPC strains): 3 | No. of KPC strains with MIC ≦50 (KPC strains): 8 | No. of IMP strains with MIC 150 (IMP strains): 0 | No. of IMP strains with MIC 200 (IMP strains): 0 | No. of IMP strains with MIC 300 (IMP strains): 0 | No. of IMP strains with MIC >300 (IMP strains): 1 | No. of IMP strains with MIC ≦50 (IMP strains): 12 | MIC (OXA-48 strains [3]): > 300 µg/mL | No. of OXA-48 strains with MIC 150 (OXA-48 strains [3]; [7]): 0 | No. of OXA-48 strains with MIC 200 (OXA-48 strains [3]; [7]): 0 | No. of OXA-48 strains with MIC 300 (OXA-48 strains [3]; [7]): 0 | No. of OXA-48 strains with MIC >300 (OXA-48 strains [3]; [7]): 15 | No. of OXA-48 strains with MIC ≦50 (OXA-48 strains [3]; [7]): 1 | No. of IR strains with MIC 150 ([4]; 0 mmol/l of EDTA): 2 | No. of IR strains with MIC 200 ([4]; 0 mmol/l of EDTA): 0 | No. of IR strains with MIC 300 ([4]; 0 mmol/l of EDTA): 0 | No. of IR strains with MIC >300 ([4]; 0 mmol/l of EDTA): 0 | No. of IR strains with MIC ≦50 ([4]; 0 mmol/l of EDTA): 8 | No. of IR strains with MIC 150 ([4]; 1.77 mmol/l of active EDTA): 4 | No. of IR strains with MIC 200 ([4]; 1.77 mmol/l of active EDTA): 1 | No. of IR strains with MIC 300 ([4]; 1.77 mmol/l of active EDTA): 1 | No. of IR strains with MIC >300 ([4]; 1.77 mmol/l of active EDTA): 0 | No. of IR strains with MIC ≦50 ([4]; 1.77 mmol/l of active EDTA): 4 | No. of IR strains with MIC 150 ([4]; 2.12 mmol/l of active EDTA): 3 | No. of IR strains with MIC 200 ([4]; 2.12 mmol/l of active EDTA): 2 | No. of IR strains with MIC 300 ([4]; 2.12 mmol/l of active EDTA): 1 | No. of IR strains with MIC >300 ([4]; 2.12 mmol/l of active EDTA): 0 | No. of IR strains with MIC ≦50 ([4]; 2.12 mmol/l of active EDTA): 4 | No. of IR strains with MIC 150 ([4]; 2.47 mmol/l of active EDTA): 2 | No. of IR strains with MIC 200 ([4]; 2.47 mmol/l of active EDTA): 2 | No. of IR strains with MIC 300 ([4]; 2.47 mmol/l of active EDTA): 0 | No. of IR strains with MIC >300 ([4]; 2.47 mmol/l of active EDTA): 0 | No. of IR strains with MIC ≦50 ([4]; 2.47 mmol/l of active EDTA): 6 | No. of IR strains with MIC 150 ([4]; 2.83 mmol/l of active EDTA): 3 | No. of IR strains with MIC 200 ([4]; 2.83 mmol/l of active EDTA): 1 | No. of IR strains with MIC 300 ([4]; 2.83 mmol/l of active EDTA): 0 | No. of IR strains with MIC >300 ([4]; 2.83 mmol/l of active EDTA): 0 | No. of IR strains with MIC ≦50 ([4]; 2.83 mmol/l of active EDTA): 6 | No. of strains detected (Non-OXA-48 strains [5]): 1/13 | No. of strains detected (OXA-48 strains [6]; OXA-48 deposit of 10^2 CFU, temocillin 200 mg/l without selective system): 15/15 | No. of strains detected (OXA-48 strains [6]; OXA-48 deposit of 10^2 CFU, temocillin 200 mg/l): 15/15 | No. of strains detected (OXA-48 strains [6]; OXA-48 deposit of 10^2 CFU, temocillin 300 mg/l): 15/15 | No. of strains detected (OXA-48 strains [6]; OXA-48 deposit of 10^2 CFU, temocillin 500 mg/l): 9/15 | No. of strains detected (OXA-48 strains [6]; OXA-48 deposit of 10^4 CFU, temocillin 200 mg/l without selective system): 15/15 | No. of strains detected (OXA-48 strains [6]; OXA-48 deposit of 10^4 CFU, temocillin 200 mg/l): 15/15 | No. of strains detected (OXA-48 strains [6]; OXA-48 deposit of 10^4 CFU, temocillin 300 mg/l): 15/15 | No. of strains detected (OXA-48 strains [6]; OXA-48 deposit of 10^4 CFU, temocillin 400 mg/l): 15/15 | No. of strains detected (OXA-48 strains [6]; OXA-48 deposit of 10^4 CFU, temocillin 500 mg/l): 12/15

Source: patent publication US9562899B2, “Method of detecting OXA-048 carbapenemase producing bacteria” (BIOMÉRIEUX, priority 2012, dated 2017)
